Among the data in article PMC11821258 (Molecules, 2025) are IC50 and SI values, retold here.

Molecules are shown by their SMILES.

Broadly, the IC50 is the point on the concentration scale where inhibition reaches its midpoint.

For the first test, the system named is human biphenotypic B myelomonocytic leukemia MV4-11. In words: Antiproliferative activity, MTT assay, 72 h. The test is classed as cell-based. The note with it: Homo sapiens; MV4-11, 72 h, MTT; read-out: IC50. The protocol:
(§1) The tested compounds were dissolved in DMSO (dimethyl sulfoxide) to a concentration of 10 mg/mL and then were diluted in the culture medium to reach the final concentrations. The cells were plated in 384-well plates at a density of 1 × 10^3 or 2 × 10^3 (MCF-10A) cells per well (Greiner Bio One, Kremsmünster, Austria) and in 96-well plates (MV4-11 cell; Sarstedt, Nümbrecht, Germany) at a density of 5 × 10^3 cells per well. After 24 h of incubation, the tested compounds were added at concentrations in the range of 100–0.03 µg/mL and, after the next 72 h of exposure to tested agents, the cytotoxic effect of all agents was examined using the MTT (MV4-11) or SRB assay, described previously. The values of IC50 (inhibitory concentration 50%) were calculated separately for each experiment (repeated 3–5 times) using the Prolab-3 system which is based on Cheburator 0.4 software. Doxorubicin was applied as a reference drug. The IC50 values in µg/mL were calculated to µM.
This assay was used against MV4-11 leukemia cells and was performed after 72 h of exposure of the tested agents to the cells. For each well, 20 µL of the MTT [3-(4,5-dimethylthiazol-2-yl)-2,5-diphenyl tetrazolium bromide] solution (5 mg/mL, Merck, Darmstadt, Germany) was added. After the incubation time (4 h at 37 °C), 80 µL of the lysing buffer was added to each well (mixture of 225 mL of DMF (dimethylformamide) Avantor, Poland; 67.5 g of SDS, Merck, Darmstadt, Germany; and 275 mL of distilled water). After the next 24 h, the absorbance of the samples was measured at a 570 nm wavelength on a Synergy H4 photometer (BioTek Instruments, Winooski, VT, USA). The absorbance of wells without the cells was the background.
(Formazan colour is commonly taken as a measure of viable cells.)
For the molecule `C=C(C)[C@@H]1CC[C@]2(COC(=O)C#CC)CC[C@]3(C)C(CCC4[C@@]5(C)CC[C@H](OC(=O)CC(C)(C)C(=O)O)C(C)(C)C5CC[C@]43C)C12` (stereo partly drawn) [Compound 5c], the IC50 was 11 ± 1.1 µM.

Staying with this test, now noted: IC50 MCF-10A / IC50 MV4-11.
Regarding `C=C(C)[C@@H]1CC[C@]2(COC(=O)C#CC)CC[C@]3(C)C(CCC4[C@@]5(C)CC[C@H](OC(=O)CC(C)(C)C(=O)O)C(C)(C)C5CC[C@]43C)C12` (stereo partly drawn) [Compound 5c], the SI was determined as 2.91.

For a further test, the system named is human normal epithelial cells from the mammary gland (MCF-10A). In words: Cytotoxicity on non-tumorigenic cells, SRB assay, 72 h. The test is classed as cell-based. The note with it: Homo sapiens, MCF-10A normal cells, SRB, read-out: IC50. The protocol:
as §1
(§2) The cytotoxicity assay was performed after the cultured cells were exposed to the tested agents for 72 h using the authomatic Washer dyspenser EL406, BioTek. At the first step, the washer dispenser collected 40 µL of cultured medium from each wells, and then the cells were fixed by gently layering 20 µL per well of cold 25% trichloroacetic acid to each well. The incubation time was 40 min and then the plates were washed with tap water. The cells were stained with 20 µL per well of 0.1% sulforhodamine B (SRB, Merck, Darmstadt, Germany) for 30 min. Unbound sulforhodamine B was removed by washing it with 1% acetic acid. The protein-bound dye was extracted in 30 min using 70 µL per well of 10 mM unbuffered Tris base (Merck, Darmstadt, Germany). The absorbance (at 540 nm) was measured on a Synergy H4 photometer (BioTek Instruments, Winooski, VT, USA). The absorbance of the wells without the cells was the background.
(Sulforhodamine B stains cellular protein and so reports cell mass.)
Consider `C=C(C)[C@@H]1CC[C@]2(COC(=O)C#CC)CC[C@]3(C)C(CCC4[C@@]5(C)CC[C@H](OC(=O)CC(C)(C)C(=O)O)C(C)(C)C5CC[C@]43C)C12` (stereo partly drawn) [Compound 5c], for which the half-inhibitory concentration (IC50) turned out to be 32 ± 4.87 µM.

The subject of another test is human colon cancer HCT116 cells. In words: Antiproliferative activity, SRB assay, 72 h. The test is classed as cell-based. The note with it: Homo sapiens, HCT-116; HCT116, 72 h, SRB; read-out: IC50. The protocol:
as §1, §2
Take `C=C(C)[C@@H]1CC[C@]2(COC(=O)C#CC)CC[C@]3(C)C(CCC4[C@@]5(C)CC[C@H](OC(=O)CC(C)(C)C(=O)O)C(C)(C)C5CC[C@]43C)C12` (stereo partly drawn) [Compound 5c]: the IC50 was found to be 9.26 ± 0.47 µM.

Still in this test, the particulars now being: IC50 MCF-10A / IC50 HCT116.
As for `C=C(C)[C@@H]1CC[C@]2(COC(=O)C#CC)CC[C@]3(C)C(CCC4[C@@]5(C)CC[C@H](OC(=O)CC(C)(C)C(=O)O)C(C)(C)C5CC[C@]43C)C12` (stereo partly drawn) [Compound 5c], the SI came out at 3.46.

The subject of a further test is human melanoma Hs294T cells. The experiment in a line: Antiproliferative activity, SRB assay, 72 h. The test is classed as cell-based. The settings on record: Homo sapiens, Hs 294T; Hs249T (so in the source), 72 h, SRB; read-out: IC50. The protocol:
as §1, §2
As to `C=C(C)[C@@H]1CC[C@]2(COC(=O)C#CC)CC[C@]3(C)C(CCC4[C@@]5(C)CC[C@H](OC(=O)CC(C)(C)C(=O)O)C(C)(C)C5CC[C@]43C)C12` (stereo partly drawn) [Compound 5c], the IC50 turned out to be 23.2 ± 3.77 µM.

Staying with this test, now noted: IC50 MCF-10A / IC50 Hs249T (so in the source).
Consider `C=C(C)[C@@H]1CC[C@]2(COC(=O)C#CC)CC[C@]3(C)C(CCC4[C@@]5(C)CC[C@H](OC(=O)CC(C)(C)C(=O)O)C(C)(C)C5CC[C@]43C)C12` (stereo partly drawn) [Compound 5c], for which the SI worked out at 1.38.

The test system of a further test is human prostate adenocarcinoma PC-3. The experiment in a line: Antiproliferative activity, SRB assay, 72 h. The settings on record: Homo sapiens; PC-3, 72 h, SRB; read-out: IC50. The test is classed as cell-based. The protocol: as §1, §2
On to `C=C(C)[C@@H]1CC[C@]2(COC(=O)C#CC)CC[C@]3(C)C(CCC4[C@@]5(C)CC[C@H](OC(=O)CC(C)(C)C(=O)O)C(C)(C)C5CC[C@]43C)C12` (stereo partly drawn) [Compound 5c], for which the IC50 was determined as 22.9 ± 4.71 µM.

The same test, now with this note: IC50 MCF-10A / IC50 PC-3.
Turning to `C=C(C)[C@@H]1CC[C@]2(COC(=O)C#CC)CC[C@]3(C)C(CCC4[C@@]5(C)CC[C@H](OC(=O)CC(C)(C)C(=O)O)C(C)(C)C5CC[C@]43C)C12` (stereo partly drawn) [Compound 5c], the SI amounted to 1.40.

The subject of another test is human pancreas cancer MiaPaca-2 cells. In words: Antiproliferative activity, SRB assay, 72 h. The test is classed as cell-based. The settings on record: Homo sapiens, MIA PaCa-2; MiaPaca-1 (so in the source), 72 h, SRB; read-out: IC50. The protocol: as §1, §2
As for `C=C(C)[C@@H]1CC[C@]2(COC(=O)C#CC)CC[C@]3(C)C(CCC4[C@@]5(C)CC[C@H](OC(=O)CC(C)(C)C(=O)O)C(C)(C)C5CC[C@]43C)C12` (stereo partly drawn) [Compound 5c], the IC50 stood at 32 ± 6.12 µM.

Staying with this test, now noted: IC50 MCF-10A / IC50 MiaPaca-1 (so in the source).
With `C=C(C)[C@@H]1CC[C@]2(COC(=O)C#CC)CC[C@]3(C)C(CCC4[C@@]5(C)CC[C@H](OC(=O)CC(C)(C)C(=O)O)C(C)(C)C5CC[C@]43C)C12` (stereo partly drawn) [Compound 5c], the SI was 1.00.

The next test has as its system human lung carcinoma A549. The experiment in a line: Antiproliferative activity, SRB assay, 72 h. The test is classed as cell-based. The settings on record: Homo sapiens; A549, 72 h, SRB; read-out: IC50. The protocol:
as §1, §2
As for `C=C(C)[C@@H]1CC[C@]2(COC(=O)C#CC)CC[C@]3(C)C(CCC4[C@@]5(C)CC[C@H](OC(=O)CC(C)(C)C(=O)O)C(C)(C)C5CC[C@]43C)C12` (stereo partly drawn) [Compound 5c], the IC50 amounted to 6.59 ± 1.88 µM.

The same test, now with this note: IC50 MCF-10A / IC50 A549.
Take `C=C(C)[C@@H]1CC[C@]2(COC(=O)C#CC)CC[C@]3(C)C(CCC4[C@@]5(C)CC[C@H](OC(=O)CC(C)(C)C(=O)O)C(C)(C)C5CC[C@]43C)C12` (stereo partly drawn) [Compound 5c]: the SI is reported as 4.86.

For another test, the system named is human breast cancer MCF-7. In words: Antiproliferative activity, SRB assay, 72 h. The test is classed as cell-based. The settings on record: Homo sapiens, MCF7; MCF-7, 72 h, SRB; read-out: IC50. The protocol: as §1, §2
Regarding `C=C(C)[C@@H]1CC[C@]2(COC(=O)C#CC)CC[C@]3(C)C(CCC4[C@@]5(C)CC[C@H](OC(=O)CC(C)(C)C(=O)O)C(C)(C)C5CC[C@]43C)C12` (stereo partly drawn) [Compound 5c], the IC50 worked out at 25 ± 4.87 µM.

Staying with this test, now noted: IC50 MCF-10A / IC50 MCF-7.
On to `C=C(C)[C@@H]1CC[C@]2(COC(=O)C#CC)CC[C@]3(C)C(CCC4[C@@]5(C)CC[C@H](OC(=O)CC(C)(C)C(=O)O)C(C)(C)C5CC[C@]43C)C12` (stereo partly drawn) [Compound 5c], for which the SI came out at 1.28.
